Entries after “also recorded” stand apart in the source; their conditions may differ. Like-named read-outs stand apart in the source and are kept apart here.
How the values were obtained:
[1] = test system: HIV/HTLV III, RF strain; experiment: p24 viral antigen capture assay (ELISA) in C8166 CD4+ T-cells; type: cell-based; details: for anti-viral activity in p24 viral antigen capture assay: result in words
Experimental: Compound I was tested for anti-viral activity in the p24 viral antigen capture assay.
The Enzyme Linked Immuno-absorbant Assay (ELISA) was used to test Compound I for anti-HIV activity by measuring virus replication in CD4^+ T-lymphocytes by detecting viral p24 antigen released into the tissue culture supernatant of infected cells.
High titer virus stocks [HIV/HTLV III, RF strain]were grown in H9 cells in RPMI-1640 (Flow Laboratories) supplemented with 10% fetal calf serum, penicillin (100 IU/ml) and streptomycin (100 μg/ml). Cell debris was removed by low speed centrifugation and the supernatant stored at -70° C. until required. The host cell line used in the anti-viral assays was the C8166 CD4^+ T-cell line which is particularly susceptible to infection with HIV. Cells were incubated with 10 TCID50, HIV/HTLV III (RF) at 37° C. for 90 minutes and then washed three times with PBS. Cell aliquots (2×10^5) were resuspended in 1.5 ml growth medium in 6 ml tubes and appropriate amounts of Compound I added and incubated at 37° C. At 72 hours post-infection, the supernatants from the cell cultures were assayed for p24 antigen. The antigen capture ELISA used was purchased from Coulter (Luton, UK). The assays were carried out on supernatants taken from infected cell cultures using the procedure described by the manufacturer. In each assay a positive control was included, together with a supernatant control taken from uninfected cells. The plates were read using the appropriate spectrophotometric detection system. Results of two separate assays are:
ID50 is defined as the dose of compound required to inhibit viral replication by 50 percent. […] Approximately 0.1 μM and 6 μM of Compound I yields 50 percent inhibition of viral replication. 0.003 μM AZT provided 50 percent inhibition of viral replication in one test conducted. ddC provided 50 percent inhibition at a concentration of 0.01 μM in one test.

[2] = test system: TAT; experiment: anti-TAT assay: SeAP reporter expression under HIV-LTR in COS cells co-transfected with TAT; type: cell-based; details: 1, 10 and 100 μM, added 24 h post transfection, assayed 48 h later, FIG. 1
Description: (§1) FIG. 1 Illustrates anti-TAT activity of Compound I. COS cells are co-transfected with TAT and Secreted Alkaline Phosphatase (SeAP) genes. The SeAP gene, under the control of the HIV-LTR (responsive to TAT activation) or the RSV-LTR (unresponsive to TAT action) serves as a monitor or reporter gene. SeAP activity in the HIV-LTR combination but not the RSV-LTR combination serves as a measure of TAT activity. Cells containing the RSV-LTR co-transfected gene combination serve as an indicator of the non-specific toxicity of added test compounds. The black bars represent the percent inhibition of SeAP activity by Compound I when the SeAP gene is under the control of HIV-LTR. The hatched bars represent the effect of Compound I on SeAP activity when the SeAP gene is regulated by RSV-LTR. […] The figure includes results from three separate assays.
(§2) Compound I was tested for anti-TAT activity in an anti-TAT assay described in copending patent application, now U.S. Ser. No. 07/428,555 filed Oct. 10, 1989, filed on the same day as the instant application and hereby incorporated by reference. […] The anti-TAT activity is measured by the percent inhibition of SeAP gene expression under the control of HIV-LTR.

[3] = test system: COS cells; experiment: parallel cytotoxicity assay: SeAP expression under RSV-LTR in COS cells; type: cell-based; details: RSV-LTR not responsive to TAT, FIG. 1
Description: as §1, §2

[4] = test system: HIV-1 NIT strain; experiment: inhibition of HIV-cytopathic effect and of viral RNA and antigen production in infected CD4+ CEM cells; type: cell-based; details: MOI=1, 3 and 6 days, FIGS. 2 and 3
Experimental: High titer virus stocks (HIV-1 NIT strain) were grown in CD4^+ CR1O cells in RMPI-1640 media (Gibco Laboratories) supplemented with 10% fetal calf serum and 0.1 mg/ml Gentamicin. The collected media were filtered through a 0.8 Micron filter and virus isolates were concentrated 100 fold and stored at -80° C.
CD4^+ CEM cells, propagated in the same medium, were incubated for 60 minutes at 37° C. with diluted stock virus at MOI=1. Cells were washed three times with phosphate buffered saline and resuspended in the medium at 2×10^5 cells/ml. Various quantities of Compound I were added. Three days after infection, numbers of live cells were counted by trypan blue exclusion [Mitsuya, et al. Proc. Natl. Acad. Sci. 83:1911 (1986)]. […] Cells stained with the fluorescent antibody were counted using a fluorescence microscope and the results were expressed as percentage of the total number of cells counted [(Hedenskog et al., J. Med. Virol. 1:9325 (1986)].
The viral RNA in infected cells was quantitized with an RNA-RNA hybridization/reversible target capture procedure [Gillespie et al. Molecular and Cellular Probes, 2:73 (1989)]. […] 2×10^5 live cells, determined by trypan blue exclusion, were used in each assay.
For cytotoxicity testing, uninfected CEM cells were treated with Compound I at similar concentrations and toxicity of the compound was measured by the live-cell count. […]

[5] = test system: HIV; details: in most patients; cited from earlier work

Compound	IC50 ([1]; Human immunodeficiency virus 1, p24 antigen, C8166 cells, 72 h post-infection, first of two separate assays, read-out: ID50 (dose of compound required to inhibit viral replication by 50 percent))	anti-viral activity in p24 viral antigen capture assay [1]	anti-TAT activity (inhibition of SeAP gene expression under control of HIV-LTR) [2]	nonspecific cytotoxicity (SeAP gene expression under control of RSV-LTR) [3]	anti-HIV activity (HIV-cytopathic effect, viral RNA and antigen production) [4]	IC50 ([1]; Human immunodeficiency virus 1, C8166, 72 h, read-out: ID50 (dose of compound required to inhibit viral replication by 50 percent), p24 antigen, C8166 cells, 72 h post-infection, first of two separate assays)	IC50 ([1]; Human immunodeficiency virus 1, C8166, 72 h, read-out: ID50 (dose of compound required to inhibit viral replication by 50 percent), p24 antigen, C8166 cells, 72 h post-infection, second of two separate assays)	virustatic range (body weight dose) [5]	IC50 ([1]; Human immunodeficiency virus 1, p24 antigen, C8166 cells, 72 h post-infection, second of two separate assays, read-out: ID50 (dose of compound required to inhibit viral replication by 50 percent))
Cc1cn([C@H]2C[C@H](N=[N+]=[N-])[C@@H](CO)O2)c(=O)[nH]c1=O [AZT]	3 nM	active in the p24 assay; also recorded: exhibits anti-viral activity							
O=C1CN=C(c2ccc[nH]2)c2cc(Cl)ccc2N1 [Compound I, 7-chloro-5-(2-pyrryl)-3H-1,4-benzodiazepin-2(1H)-one]		positive results; also recorded: exhibits anti-viral activity	specifically inhibits TAT action; also recorded: exhibits anti-TAT activity; also recorded: specific inhibitor of TAT	does not exhibit nonspecific toxicity; also recorded: does not exhibit nonspecific cytotoxicity	inhibition of HIV-cytopathic effect and viral RNA and antigen production	100 nM	6000 nM		
Nc1ccn([C@H]2CC[C@@H](CO)O2)c(=O)n1 [ddC]		active in the p24 assay						0.005-0.25 mg/kg body weight	10 nM

Source: patent US5041438A, “Method for treating retroviral infections with benzodiazepine compounds” (Hoffmann-La Roche Inc., priority 1989, dated 1991)
